Common to all, as to assay type: cell-based
The test system of data set [1] is Trypanosoma brucei rhodensiense (STIB 900 strain). As to the kind of experiment: African trypanosome protozoa growth inhibition screening test. The note with it: chemotherapy index = EC50 rat L6 cells / EC50 African trypanosome protozoa.
A short description of data set [2]: Growth inhibition test of rat L6 cells. The note with it: L6 cells (rat skeletal myoblast), Alamar Blue (Table 2), read-out: 50% growth inhibition concentration Cytotoxicity L6. On the technique in general: Alamar Blue is a resazurin reagent that responds to reducing activity.
For data set [3], the system named is Leishmania donovani (MHOM/ET/67/L82 strain). As to the kind of experiment: Leishmania protozoa growth inhibition screening test. The note with it: chemotherapy index = EC50 rat L6 cells / EC50 leishmania protozoa.

Consider `CCN1/C(=C/C=c2\s/c(=C\c3sc4c5ccccc5ccc4[n+]3CC)n(CC)c2=O)Sc2ccc3ccccc3c21` [A-1], for which the Selective toxicity came out at 1900 in data set [1] and 3600 in data set [3]. Also, the EC50 at 72 h in data set [2] was 30 µM.
As to `CCN1C(C)=CS/C1=C\C=c1/s/c(=C\c2sc3ccccc3[n+]2CC)n(CC)c1=O` [A-15], the Selective toxicity in data set [1] is 250; in data set [3], 130. Further, the EC50 at 72 h in data set [2] was 22 µM.
As for `CCN1/C(=C/C=c2\s/c(=C\C3=[N+](CC)CCS3)n(CC)c2=O)C=Cc2ccccc21` [A-10], the Selective toxicity is given as 100 in data set [1] and 130 in data set [3]. The EC50 at 72 h in data set [2] turned out to be 20 µM.
